For 14 compounds, IC50 results are on record in patent publication US20240262793A1, “QUINAZOLINE COMPOUND, AND PREPARATION METHOD THEREFOR AND APPLICATION THEREOF” (SHANGHAI PHARMACEUTICALS HOLDING CO., LTD., priority 2021, published 2024).

Structures are written as SMILES.

Assay type in all cases: cell-based
What all share (settings): Homo sapiens, LPS 100 ng/mL

For one test, the system named is TNF-α. The experiment in a line: Inhibition of TNF-α in PMA-differentiated, LPS-stimulated THP-1 cells (ELISA of cell supernatant). How it is done:
(§1) (1) Cell culture and inoculation: A stock solution of PMA at 1 mg/mL was diluted with serum-free RP1640 medium to prepare a 100 ng/mL PMA solution. Normal cultured THP-1 cells were centrifuged, resuspended in a complete medium (RP1640 medium containing 10% FBS), and counted. The cell density was adjusted to 2×10^6 cells/mL. An equal volume of 100 ng/mL PMA solution was then added, resulting in a cell density of 1×10^6 cells/mL and a final PMA concentration of 50 ng/mL. 100 μL of the cell suspension was seeded into each well of a 96-well cell culture plate with 1×10^5 cells per well. The 96-well cell culture plate was then incubated at 37° C. in a 5% CO2 atmosphere for 24 hours.
(§2) (2) Drug treatment of cells: On the second day, LPS was added to the complete medium to adjust the final concentration to 100 ng/mL, and the compound was prepared using this LPS-containing medium. The compound was added to the appropriate cell wells according to the prepared concentration gradient. The positive control group (LPS+) was a culture medium solution containing a final concentration of 100 ng/mL LPS and 0.1% DMSO without drugs, while the negative control group (LPS-) was a culture medium solution containing 0.1% DMSO without LPS. The volume in each well was 100 μL.
(§3) (3) Test sample collection: The mixture was centrifuged at 1000 rpm for 5 minutes and the cell supernatant and cell precipitate were collected separately. The cell supernatant was used to detect TNF-α and IL-6, and the cell precipitate was collected for IL-1β detection. After collecting the cell supernatant, the remaining liquid in the wells was discarded and 100 μL of cell lysis solution (20 mM Tris 8.0; 2 mM EDTA; 0.5% Triton X-100) was added to each well for complete lysis.
(§4) (4) Sample detection: The enzyme-linked immunosorbent assay (ELISA) was used to detect the content of each cytokine. The specific steps were performed according to the instructions provided in the corresponding kit manuals. The catalog numbers of kits are as follows: • Human TNF-alpha Quantikine ELISA Kit, Catalog # STA00D • Human IL-1 beta/IL-1F2 Quantikine ELISA Kit, Catalog # SLB50 • Human IL-6 Quantikine ELISA Kit, Catalog # S6050.
(§5) (5) Data analysis: The in vitro inhibitory activity of the compounds was calculated using the following formula: […]

A further test relates to IL-6. The experiment in a line: Inhibition of IL-6 in PMA-differentiated, LPS-stimulated THP-1 cells (ELISA of cell supernatant). On the procedure:
as §1, §2, §3, §4, §5
(ELISA stands for enzyme-linked immunosorbent assay.)

A further test concerns IL-1β. The experiment in a line: Inhibition of IL-1β in PMA-differentiated, LPS-stimulated THP-1 cells (ELISA of cell lysate). On the procedure: as §1, §2, §3, §4, §5

For `CC(CCCN(CCO)Cc1ccccc1)Nc1ncnc2cc(Cl)ccc12` (stereo not drawn) [Example 34, 2-(Benzyl(4-((7-chloroquinazolin-4-yl)amino)pentyl)amino)ethan-1-ol], the IC50 stood at 33.4 µM in the test on TNF-α (THP-1, Table 7, PMA 50 ng/mL); 3.16 µM with IL-6 (THP-1, Table 7, PMA 50 ng/mL); 36.6 µM with IL-1β (THP-1, Table 7, PMA 50 ng/mL).
In the same order, the values of `CC(CCCN(CCO)Cc1ccccc1)Nc1ncnc2cc(F)ccc12` (stereo not drawn) [Example 35, 2-(Benzyl(4-((7-fluoroquinazolin-4-yl)amino)pentyl)amino)ethan-1-ol] are 20.1 µM, 0.82 µM and 5.66 µM.
Regarding `COC(=O)c1ccc(CN(CCO)CCCC(C)Nc2ncnc3cc(Cl)ccc23)cc1` (stereo not drawn) [Example 36, Methyl 4-(((4-((7-chloroquinazolin-4-yl)amino)pentyl)(2-hydroxyethyl)amino)methyl)benzoate], the IC50 is 6.86 µM with TNF-α (THP-1, Table 7, PMA 50 ng/mL); 1.05 µM in the test with IL-6 (THP-1, Table 7, PMA 50 ng/mL); 17.2 µM in the test with IL-1β (THP-1, Table 7, PMA 50 ng/mL).
On the same counts, the results for `COc1ccc(CN(CCO)CCCC(C)Nc2ncnc3cc(Cl)ccc23)cc1F` (stereo not drawn) [Example 37] are 4.88 µM, 0.18 µM and 41.8 µM.
With `CC(CCCN(CCO)Cc1ccc(-n2cccn2)cc1)Nc1ncnc2cc(Cl)ccc12` (stereo not drawn) [Example 39], the IC50 in the test on TNF-α (THP-1, Table 7, PMA 50 ng/mL) was determined as 7.89 µM; in the test with IL-6 (THP-1, Table 7, PMA 50 ng/mL), 0.77 µM; with IL-1β (THP-1, Table 7, PMA 50 ng/mL) it was 7.4 µM.
Regarding `CC(CCCN(CCO)Cc1ccc(S(C)(=O)=O)cc1)Nc1ncnc2cc(Cl)ccc12` (stereo not drawn) [Example 40], the IC50 in the test on TNF-α (THP-1, Table 7, PMA 50 ng/mL) stood at 10.1 µM; in the test with IL-6 (THP-1, Table 7, PMA 50 ng/mL), 0.6 µM; with IL-1β (THP-1, Table 7, PMA 50 ng/mL), 0.7 µM.
With `COC(=O)c1ccc(CN(CCO)CCCC(C)Nc2ccnc3cc(F)ccc23)cc1` (stereo not drawn) [Example 42], the half-inhibitory concentration (IC50) in the test with TNF-α (THP-1, Table 7, PMA 50 ng/mL) was 6.56 µM; in the test on IL-6 (THP-1, Table 7, PMA 50 ng/mL), 2.84 µM; with IL-1β (THP-1, Table 7, PMA 50 ng/mL) it was 3.31 µM.
On the same counts, the results for `CC(CCCN(CCO)Cc1ccc(OC(F)(F)F)cc1)Nc1ccnc2cc(F)ccc12` (stereo not drawn) [Example 43] are 4.01 µM, 1.57 µM and 33.8 µM.
On the same counts, the results for `COC(=O)c1ccc(CN(CCO)CCCCCNc2ncnc3cc(Cl)ccc23)cc1` [Example 44, Methyl 4-(((5-((7-chloroquinazolin-4-yl)amino)pentyl)(2-hydroxyethyl)amino)methyl)benzoate] are 19.9 µM, 0.77 µM and 21.1 µM.
On the same counts, the results for `OCCN(CCCCCNc1ncnc2cc(Cl)ccc12)Cc1ccc(OC(F)(F)F)cc1` [Example 45, 2-((5-((7-Chloroquinazolin-4-yl)amino)pentyl)(4-(trifluoromethoxy)benzyl)amino)ethan-1-ol] are 12.6 µM, 1.09 µM and 10.3 µM.
Regarding `OCCN(CCCCNc1ncnc2cc(Cl)ccc12)Cc1ncco1` [Example 47, 2-((4-((7-Chloroquinazolin-4-yl)amino)butyl)(oxazol-2-ylmethyl)amino)ethan-1-ol], the IC50 stood at 58.1 µM with TNF-α (THP-1, Table 7, PMA 50 ng/mL); 1.94 µM with IL-6 (THP-1, Table 7, PMA 50 ng/mL); 1 µM with IL-1β (THP-1, Table 7, PMA 50 ng/mL).
With `OCCN(CCCCCNc1ncnc2cc(F)ccc12)Cc1ncco1` [Example 48, 2-((5-((7-Fluoroquinazolin-4-yl)amino)pentyl)(oxazol-2-ylmethyl)amino)ethan-1-ol], the IC50 in the test with TNF-α (THP-1, Table 7, PMA 50 ng/mL) was 14.8 µM; with IL-6 (THP-1, Table 7, PMA 50 ng/mL) it was 0.91 µM; in the test on IL-1β (THP-1, Table 7, PMA 50 ng/mL) it was 49.6 µM.
On the same counts, the results for `CS(=O)(=O)c1ccc(CN(CCO)CCCCCNc2ncnc3cc(F)ccc23)cc1` [Example 49] are 18.5 µM, 1.15 µM and 48.2 µM.
As to `O=C1NC2(CCC2)C(=O)N1CCCCCNc1ncnc2cc(F)ccc12` [Example 51, 7-(5-((7-Fluoroquinazolin-4-yl)amino)pentyl)-5,7-diazaspiro[3.4]octane-6,8-dione], the IC50 with TNF-α (THP-1, Table 8, PMA 50 ng/mL) was 3.96 µM; in the test on IL-6 (THP-1, Table 8, PMA 50 ng/mL), 0.04 µM; in the test on IL-1β (THP-1, Table 8, PMA 50 ng/mL) it was 3.52 µM.

By IC50 is commonly meant the midpoint of a concentration-inhibition curve. A low value points to greater potency in that assay.
